Measurements reported in ChEMBL document CHEMBL1201862, “PubChem BioAssay data set” (2004).
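Cells were grown in 96-well plates and exposed to each compound for 48 hours at five concentrations; endpoints were interpolated linearly between bracketing concentrations, or set to the highest concentration if not reached. Abbreviation: GI50, concentration required for 50% inhibition of growth.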 Activity calls are given as the source filed them. No stated cut-off is given here; in the data, active = GI50 up to about 1.1 µM and inactive = higher.

Columns and labels:
Assay in all cases: NCI-60 cell line screen, 48 h
786-0 = system: 786-0
A498 = system: A498
A549 = system: A549
HOP-62 = system: HOP-62
HOP-92 = system: HOP-92
HT-29 = system: HT-29
Hs-578T = system: Hs-578T
K562 = system: K562
MCF7 = system: MCF7
MDA-N = system: MDA-N
MOLT-4 = system: MOLT-4
NCI-H460 = system: NCI-H460
OVCAR-8 = system: OVCAR-8
SF-295 = system: SF-295
SK-MEL-28 = system: SK-MEL-28
SK-MEL-2 = system: SK-MEL-2
SN12C = system: SN12C
SW-620 = system: SW-620
TK-10 = system: TK-10
UACC-62 = system: UACC-62

SMILES | GI50 (786-0) | GI50 (A498) | GI50 (A549) | GI50 (HOP-62) | GI50 (HOP-92) | GI50 (HT-29) | GI50 (Hs-578T) | GI50 (K562) | GI50 (MCF7) | GI50 (MDA-N) | GI50 (MOLT-4) | GI50 (NCI-H460) | GI50 (OVCAR-8) | GI50 (SF-295) | GI50 (SK-MEL-28) | GI50 (SK-MEL-2) | GI50 (SN12C) | GI50 (SW-620) | GI50 (TK-10) | GI50 (UACC-62)
NCCCN(CCCN(C(=O)Nc1ccccc1)c1ccccc1)C(=O)Nc1ccccc1 | 33 µM (inactive) | 87.1 µM (inactive) | 47.1 µM (inactive) | 25.1 µM (inactive) | 27.2 µM (inactive) | 29.8 µM (inactive) | 32.7 µM (inactive) | 34.9 µM (inactive) | 35.1 µM (inactive) | 40.5 µM (inactive) | 52 µM (inactive) | 31 µM (inactive) | 49.3 µM (inactive) | 23.2 µM (inactive) | 16.7 µM (inactive) | 21.9 µM (inactive) | 64.9 µM (inactive) | 21.3 µM (inactive) | 38.4 µM (inactive) | 23.1 µM (inactive)
COC1(OC)c2no[n+]([O-])c2CCC1O (stereo not given) | > 100 µM (inactive) | > 100 µM (inactive) | > 100 µM (inactive) | > 100 µM (inactive) | 0.0255 µM (active) | > 100 µM (inactive) | > 100 µM (inactive) | > 100 µM (inactive) | > 100 µM (inactive) | > 100 µM (inactive) | > 100 µM (inactive) | > 100 µM (inactive) | > 100 µM (inactive) | > 100 µM (inactive) | > 100 µM (inactive) | > 100 µM (inactive) | > 100 µM (inactive) | > 100 µM (inactive) | > 100 µM (inactive) | > 100 µM (inactive)
Cc1cc2c(cc1C)NC1=C(O)C(c3c[nH]c4ccc(COc5ccccc5)cc34)OC1=N2 (stereo not given) | 30.5 µM (inactive) | 32 µM (inactive) | > 100 µM (inactive) | 20.4 µM (inactive) | 33.3 µM (inactive) | > 100 µM (inactive) | 36 µM (inactive) | > 100 µM (inactive) | 72.1 µM (inactive) | > 100 µM (inactive) | 46.9 µM (inactive) | > 100 µM (inactive) | 43.9 µM (inactive) | 33.6 µM (inactive) | > 100 µM (inactive) | 58.2 µM (inactive) | > 100 µM (inactive) | > 100 µM (inactive) | 53.5 µM (inactive) | > 100 µM (inactive)
O=C(O)c1cc2c(s1)C(=O)c1sccc1C2=O | 8.34 µM (inactive) | 17.5 µM (inactive) | 4.25 µM (inactive) | 6.11 µM (inactive) | 16.3 µM (inactive) | 5.64 µM (inactive) | 2.49 µM (inactive) | 4.03 µM (inactive) | 2.8 µM (inactive) | 0.769 µM (active) | 8.71 µM (inactive) | 17.3 µM (inactive) | 4.09 µM (inactive) | 2.26 µM (inactive) | 1.9 µM (inactive) | 2.23 µM (inactive) | 2.73 µM (inactive) | 2.31 µM (inactive) | 20.1 µM (inactive) | 2.08 µM (inactive)
Cn1c(=S)c2nc(SCc3cccnc3)[nH]c2n(C)c1=O | > 100 µM (inactive) | > 100 µM (inactive) | > 100 µM (inactive) | > 100 µM (inactive) | > 100 µM (inactive) | > 100 µM (inactive) | 92 µM (inactive) | > 100 µM (inactive) | > 100 µM (inactive) | > 100 µM (inactive) | > 100 µM (inactive) | > 100 µM (inactive) | > 100 µM (inactive) | 97.7 µM (inactive) | > 100 µM (inactive) | > 100 µM (inactive) | > 100 µM (inactive) | > 100 µM (inactive) | > 100 µM (inactive) | > 100 µM (inactive)
COC(=O)CC1(O)C(C=C(C)C)C(C(=O)OC)C(=O)C(C(=O)OC)C1C(=O)OC (stereo not given) | > 100 µM (inactive) | > 100 µM (inactive) | > 100 µM (inactive) | > 100 µM (inactive) | > 100 µM (inactive) | > 100 µM (inactive) | > 100 µM (inactive) | > 100 µM (inactive) | > 100 µM (inactive) | > 100 µM (inactive) | > 100 µM (inactive) | > 100 µM (inactive) | > 100 µM (inactive) | > 100 µM (inactive) | > 100 µM (inactive) | > 100 µM (inactive) | > 100 µM (inactive) | > 100 µM (inactive) | > 100 µM (inactive) | > 100 µM (inactive)
N#Cc1c(NCCc2ccc(F)cc2)c2ccccc2n2c1nc1ccccc12 | 4.46 µM (inactive) | 21 µM (inactive) | 33.7 µM (inactive) | 5.27 µM (inactive) | 3.55 µM (inactive) | 14.9 µM (inactive) | 4.33 µM (inactive) | > 100 µM (inactive) | 6.34 µM (inactive) | 21.3 µM (inactive) | > 100 µM (inactive) | 16.5 µM (inactive) | 5.68 µM (inactive) | 10.7 µM (inactive) | 40.6 µM (inactive) | 36.9 µM (inactive) | 15.1 µM (inactive) | 75 µM (inactive) | 12.5 µM (inactive) | 7.6 µM (inactive)
CC[C@@H]1CC[C@@H]2[C@H](CC[C@]3(C)[C@@H](O)CC[C@@H]23)[C@H]1CO | > 100 µM (inactive) | > 100 µM (inactive) | > 100 µM (inactive) | > 100 µM (inactive) | > 100 µM (inactive) | 39.3 µM (inactive) | > 100 µM (inactive) | 51.1 µM (inactive) | > 100 µM (inactive) | > 100 µM (inactive) | 50 µM (inactive) | > 100 µM (inactive) | > 100 µM (inactive) | 77.3 µM (inactive) | > 100 µM (inactive) | > 100 µM (inactive) | > 100 µM (inactive) | > 100 µM (inactive) | > 100 µM (inactive) | 79.8 µM (inactive)
O=C(NC(=S)Nc1ccc(Br)cc1)c1ccc2c(c1)Sc1ccccc1O2 | 51.5 µM (inactive) | 27.4 µM (inactive) | > 100 µM (inactive) | 79.8 µM (inactive) | 22.5 µM (inactive) | > 100 µM (inactive) | 45.7 µM (inactive) | > 100 µM (inactive) | > 100 µM (inactive) | > 100 µM (inactive) | > 100 µM (inactive) | > 100 µM (inactive) | 50.1 µM (inactive) | 54.5 µM (inactive) | > 100 µM (inactive) | > 100 µM (inactive) | 95.7 µM (inactive) | > 100 µM (inactive) | 29.4 µM (inactive) | 68.2 µM (inactive)
Nc1nc(Cl)cc(NCC2(CO)CCC(Cc3ccccc3)C2)n1 (stereo not given) | 27.7 µM (inactive) | 12.6 µM (inactive) | 16.3 µM (inactive) | 32.7 µM (inactive) | 20.6 µM (inactive) | 19.1 µM (inactive) | 25.4 µM (inactive) | 1.21 µM (inactive) | 11.2 µM (inactive) | 23.1 µM (inactive) | 3.74 µM (inactive) | 18.6 µM (inactive) | 15.6 µM (inactive) | 10.1 µM (inactive) | 37.5 µM (inactive) | 23.6 µM (inactive) | 52.7 µM (inactive) | 15 µM (inactive) | 26 µM (inactive) | 11.9 µM (inactive)
O=C(O)CCc1nc(-c2ccccc2)c(-c2ccccc2)o1 [OXAPROZIN] | > 100 µM (inactive) | > 100 µM (inactive) | > 100 µM (inactive) | > 100 µM (inactive) | > 100 µM (inactive) | > 100 µM (inactive) | > 100 µM (inactive) | > 100 µM (inactive) | > 100 µM (inactive) | > 100 µM (inactive) | 84.1 µM (inactive) | > 100 µM (inactive) | > 100 µM (inactive) | > 100 µM (inactive) | > 100 µM (inactive) | > 100 µM (inactive) | > 100 µM (inactive) | > 100 µM (inactive) | > 100 µM (inactive) | > 100 µM (inactive)
CC1(C)OC2OC(C(COS(=O)(=O)C(F)(F)F)N=[N+]=[N-])C(OC(=O)c3ccccc3)C2O1 (stereo not given) | > 100 µM (inactive) | > 100 µM (inactive) | > 100 µM (inactive) | > 100 µM (inactive) | > 100 µM (inactive) | > 100 µM (inactive) | > 100 µM (inactive) | > 100 µM (inactive) | > 100 µM (inactive) | > 100 µM (inactive) | > 100 µM (inactive) | > 100 µM (inactive) | > 100 µM (inactive) | > 100 µM (inactive) | > 100 µM (inactive) | > 100 µM (inactive) | > 100 µM (inactive) | > 100 µM (inactive) | > 100 µM (inactive) | > 100 µM (inactive)
COc1ccc(/C=C2\CCC/C(=C\c3ccc(O)c(CN4CCCCC4)c3)C2=O)cc1 | 4.17 µM (inactive) | 9.57 µM (inactive) | 8 µM (inactive) | 12.4 µM (inactive) | 9.79 µM (inactive) | 2.3 µM (inactive) | 11.5 µM (inactive) | 3.96 µM (inactive) | 3.73 µM (inactive) | 3.55 µM (inactive) | 2.59 µM (inactive) | 4.98 µM (inactive) | 2.81 µM (inactive) | 6.95 µM (inactive) | 11.3 µM (inactive) | 11.2 µM (inactive) | 4.76 µM (inactive) | 3.33 µM (inactive) | 5.77 µM (inactive) | 3.9 µM (inactive)
COc1cccc(C2c3cc4c(cc3OC(NNS(=O)(=O)c3ccc(C)cc3)C2C)OCO4)c1O (stereo not given) | 0.537 µM (active) | 25.5 µM (inactive) | 18.6 µM (inactive) | 22.3 µM (inactive) | 33.8 µM (inactive) | 17.9 µM (inactive) | 12.8 µM (inactive) | 10.2 µM (inactive) | 18.7 µM (inactive) | 24.5 µM (inactive) | 10.7 µM (inactive) | 21.8 µM (inactive) | 1.69 µM (inactive) | 20.8 µM (inactive) | 25.5 µM (inactive) | 17.4 µM (inactive) | 37 µM (inactive) | 23 µM (inactive) | 31.8 µM (inactive) | 22 µM (inactive)
